Source: patent US20120295838A1, “Selective poly-substituted glycine antibiotics and related compositions” (priority 2008, published 2012)
In brackets after ≈: the same amount, converted by molar mass. Read-outs that look alike come from different tables or passages of the source. Each block holds one compound with its values, some of them ahead of it. Numbered stars: 1 amine (or outer) side, 2 acyl side, 3 side chain; on linkers, the order of the positions; unused ones are H or OH. Square brackets hold non-standard residues; d marks the D form. Ends that are not written are not given here. Peptide text beside a SMILES is read from it. Gly(N-CH2CH2-imidazol-4-yl) = O=C(O)CNCCc1c[nH]cn1; X1 = CC(C)[C@H](C)N(CC(=O)[*:2])[*:1]; Nspe = C[C@H](NCC(=O)O)c1ccccc1; Nphe = O=C(O)CNCc1ccccc1; Nlys = NCCCCNCC(=O)O

Assays:
Format in all cases: cell-based
human erythrocytes = assay: Hemolysis assay
Procedure, shortened: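 Heparinised fresh human erythrocytes, 20 vol % in PBS pH 7.4, mixed 1:1 with 1:2 serially diluted peptoid and incubated 1 h at 37 °C. PBS alone as 0% and 0.2 vol % Triton X-100 as 100% hemolysis; after 1200 g spin for 15 min, supernatant A350 read.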

[1] = tested on: Staphylococcus aureus NRS120; conditions: for Selectivity ratio (SR): Table 7B, 10% hemolytic dose divided by MIC, S. aureus NRS120
Experimental: (§1) Antibacterial assays. MICs were determined according to CLSI M7-A6 protocols in a 96-well microtiter plate. In test wells, 50 uL bacterial inoculum (5×10^5 CFU/ml) in Mueller-Hinton broth (MHB) was added to 50 μL peptoid solution in MHB (prepared by 1:2 serial dilutions). Positive controls contained 50 μL inoculum and 50 μL MHB without peptoid. […] MIC values reported were reproducible between three independent experimental replicates, each consisting of two parallel trials. Broad-spectrum antimicrobial susceptibility testing was performed against BSL2 pathogens by Nova Biologicals, Inc. (Conroe, Tex.).
(§2) Broad-spectrum antibacterial assays. MICs of compounds were determined by microdilution procedure in Mueller-Hinton broth (MHB) in accordance with CLSI M7-A6 protocols in a manner similar to that described for the screen antibacterial assays. Inoculated microtiter plates were incubated at 35° C. for 24 hours prior to the result being recorded. Four ATCC strains that were used as standards are recommended by CLSI: Pseudomonas aeruginosa ATCC 27853, Escherichia coli ATCC 25922, Staphylococcus aureus ATCC 29213 and Enterococcus faecalis ATCC 29212. Other strains from the ATCC collection include Proteus vulgaris ATCC 49132, Proteus mirabilis ATCC 35659, Klebsiella pneumoniae ATCC 33495, Enterobacter aerogenes ATCC 35029 and Serratia marcescens ATCC 13880. S. aureus NRS100 (COL) is a well characterized methicillian-resistant S. aureus (MRSA) strain. The strains S. aureus VAN1 and S. aureus VAN2, vancomycin-resistant MRSA strains that were isolated in Michigan and Pennsylvania, were the first vancomycin-resistant strains clinically isolated. S. aureus NRS 119 and S. aureus NRS 120 are linezolid-resistant isolates from the Network on Antimicrobial Resistance in S. aureus (NARSA) collection. E. faecalis 99 and E. faecium 106 are vancomycin-resistant enterococcal strains.

Enterococcus faecalis 99 = conditions: for Selectivity ratio (SR): Table 7B, 10% hemolytic dose divided by MIC
Experimental: as §1, §2

[2] = tested on: Pseudomonas aeruginosa ATCC 27853; conditions: for Selectivity ratio (SR): Table 7B, 10% hemolytic dose divided by MIC
Experimental: as §1, §2

[3] = tested on: Staphylococcus aureus VAN2; conditions: for Selectivity ratio (SR): Table 7B, 10% hemolytic dose divided by MIC, S. aureus VAN2
Experimental: as §1, §2

Enterococcus faecium 106 = conditions: for Selectivity ratio (SR): Table 7B, 10% hemolytic dose divided by MIC
Experimental: as §1, §2

[4] = tested on: Staphylococcus aureus NRS100 (COL); conditions: for Selectivity ratio (SR): Table 7B, 10% hemolytic dose divided by MIC, S. aureus NRS100 (COL)
Experimental: as §1, §2

[5] = tested on: Proteus vulgaris ATCC 49132; conditions: for Selectivity ratio (SR): Table 7B, 10% hemolytic dose divided by MIC
Experimental: as §1, §2

[6] = tested on: Staphylococcus aureus VAN1; conditions: for Selectivity ratio (SR): Table 7B, 10% hemolytic dose divided by MIC, S. aureus VAN1
Experimental: as §1, §2

[7] = tested on: Escherichia coli ATCC 25922; conditions: for Selectivity ratio (SR): Table 7B, 10% hemolytic dose divided by MIC
Experimental: as §1, §2

[8] = tested on: Staphylococcus aureus ATCC 29213; conditions: for Selectivity ratio (SR): Table 7B, 10% hemolytic dose divided by MIC
Experimental: as §1, §2

[9] = tested on: Staphylococcus aureus NRS119; conditions: for Selectivity ratio (SR): Table 7B, 10% hemolytic dose divided by MIC, S. aureus NRS119
Experimental: as §1, §2

[10] = tested on: Proteus mirabilis ATCC 35659; assay: Broad-spectrum antibacterial MIC; conditions: Table 7B; 10% hemolytic dose divided by MIC; P. mirabilis ATCC 35659
Experimental: as §1, §2

[11] = tested on: Serratia marcescens ATCC 13880; assay: Broad-spectrum antibacterial MIC; conditions: Table 7B; 10% hemolytic dose divided by MIC; S. marcescens ATCC 13880
Experimental: as §1, §2

Compound: C[C@@H](c1ccccc1)N(CC(=O)N(CCc1cnc[nH]1)CC(=O)N(CCCCN)CC(=O)N(CC(=O)N(CC(=O)N(CCCCN)CC(=O)N(CC(=O)N(CCc1cnc[nH]1)CC(N)=O)[C@@H](C)c1ccccc1)[C@@H](C)c1ccccc1)[C@@H](C)c1ccccc1)C(=O)CN(CCCCN)C(=O)CN(C(=O)CN(C(=O)CNCCCCN)[C@@H](C)c1ccccc1)[C@@H](C)c1ccccc1 [1-Nhis6,12, H-(Nlys-Nspe-Nspe-Nlys-Nspe-Nhis)2-NH2] (H-[Nlys][Nspe][Nspe][Nlys][Nspe][Gly(N-CH2CH2-imidazol-4-yl)][Nlys][Nspe][Nspe][Nlys][Nspe][Gly(N-CH2CH2-imidazol-4-yl)]-NH2)
HD10 (human erythrocytes): >200/>200 μM | HD50 (human erythrocytes): >200/>200 μM

MIC ([1]; NRS120): 16 mg/L (≈ 9.51 µM) | MIC (Enterococcus faecalis 99; 99): 64 mg/L (≈ 38 µM) | MIC ([2]; ATCC 27853): 16 mg/L (≈ 9.51 µM) | MIC ([3]; VAN2): 8 mg/L (≈ 4.75 µM) | MIC (Enterococcus faecium 106; 106): 4 mg/L (≈ 2.38 µM) | MIC ([4]; NRS100 (COL)): 8 mg/L (≈ 4.75 µM) | MIC ([5]; ATCC 49132): 32 mg/L (≈ 19 µM) | MIC ([6]; VAN1): 8 mg/L (≈ 4.75 µM) | MIC ([7]; ATCC 25922): 8 mg/L (≈ 4.75 µM) | MIC ([8]; ATCC 29213): 8 mg/L (≈ 4.75 µM) | MIC ([9]; NRS119): 16 mg/L (≈ 9.51 µM)
Compound: CC(C)[C@H](C)N(CC(=O)N(CC(=O)N(CCCCN)CC(=O)N(CC(=O)N(CC(=O)N(CCCCN)CC(=O)N(CC(=O)N(CC(=O)N(CCCCN)CC(=O)N(CC(=O)N(CC(N)=O)[C@@H](C)c1ccccc1)[C@@H](C)C(C)C)[C@@H](C)c1ccccc1)[C@@H](C)C(C)C)[C@@H](C)c1ccccc1)[C@@H](C)C(C)C)[C@@H](C)c1ccccc1)C(=O)CNCCCCN [1-Nsdp2,5,8,11, H-(Nlys-Nsdp-Nspe)4-NH2] (H-[Nlys][X1][Nspe][Nlys][X1][Nspe][Nlys][X1][Nspe][Nlys][X1][Nspe]-NH2)
Selectivity ratio (SR) [1]: 23 | Selectivity ratio (SR) (Enterococcus faecalis 99; E. faecalis 99): 2.9 | Selectivity ratio (SR) ([2]; P. aeruginosa ATCC 27853): 12 | Selectivity ratio (SR) [3]: 23 | Selectivity ratio (SR) (Enterococcus faecium 106; E. faecium 106): 46 | Selectivity ratio (SR) [4]: 23 | Selectivity ratio (SR) ([5]; P. vulgaris ATCC 49132): 5.8 | Selectivity ratio (SR) [6]: 23 | Selectivity ratio (SR) ([7]; E. coli ATCC 25922): 23 | Selectivity ratio (SR) ([8]; S. aureus ATCC 29213): 23 | Selectivity ratio (SR) [9]: 12 | Selectivity ratio (SR) [10]: <1.5 | Selectivity ratio (SR) [11]: <1.5

Compound: GIGKFLKKAKKFGKAFVKILKK-NH2 [pexiganan, reference compound]
MIC ([1]; Table 7A, S. aureus NRS120 (linezolid-resistant)): 64 mg/L | Selectivity ratio (SR) [1]: 2.8 | MIC (Enterococcus faecalis 99; Table 7A, E. faecalis 99): 128 mg/L | Selectivity ratio (SR) (Enterococcus faecalis 99; E. faecalis 99): 1.4 | MIC ([2]; Table 7A, P. aeruginosa ATCC 27853): 4 mg/L | Selectivity ratio (SR) ([2]; P. aeruginosa ATCC 27853): 46 | MIC ([3]; Table 7A, S. aureus VAN2 (MRSA, vancomycin-resistant)): 8 mg/L | Selectivity ratio (SR) [3]: 23 | MIC (Enterococcus faecium 106; Table 7A, E. faecium 106): 4 mg/L | Selectivity ratio (SR) (Enterococcus faecium 106; E. faecium 106): 46 | MIC ([4]; Table 7A, S. aureus NRS100 (COL) (MRSA)): 16 mg/L | Selectivity ratio (SR) [4]: 11 | MIC ([5]; Table 7A, P. vulgaris ATCC 49132): 32 mg/L | Selectivity ratio (SR) ([5]; P. vulgaris ATCC 49132): 5.7 | MIC ([6]; Table 7A, S. aureus VAN1 (MRSA, vancomycin-resistant)): 16 mg/L | Selectivity ratio (SR) [6]: 11 | MIC ([7]; Table 7A, E. coli ATCC 25922): 8 mg/L | Selectivity ratio (SR) ([7]; E. coli ATCC 25922): 23 | MIC ([8]; Table 7A, S. aureus ATCC 29213): 32 mg/L | Selectivity ratio (SR) ([8]; S. aureus ATCC 29213): 5.7 | MIC ([9]; Table 7A, S. aureus NRS119 (linezolid-resistant)): 64 mg/L | Selectivity ratio (SR) [9]: 2.8 | Selectivity ratio (SR) [10]: <1.4 | Selectivity ratio (SR) [11]: <1.4 | HD10 (human erythrocytes; human, 1 h, pH 7.4): 73 µM | HD50 (human erythrocytes; human, 1 h, pH 7.4): > 200 µM

Compound: NCCCCNCC(=O)N(CC(=O)N(CC(=O)N(CCCCN)CC(=O)N(CC(=O)N(CC(=O)N(CCCCN)CC(=O)N(CC(=O)N(CC(=O)N(CCCCN)CC(=O)N(CC(=O)N(CC(N)=O)Cc1ccccc1)Cc1ccccc1)Cc1ccccc1)Cc1ccccc1)Cc1ccccc1)Cc1ccccc1)Cc1ccccc1)Cc1ccccc1 [1achiral, H-(Nlys-Npm-Npm)4-NH2] (H-[Nlys][Nphe][Nphe][Nlys][Nphe][Nphe][Nlys][Nphe][Nphe][Nlys][Nphe][Nphe]-NH2)
Selectivity ratio (SR) [1]: 19 | Selectivity ratio (SR) (Enterococcus faecalis 99; E. faecalis 99): 4.9 | Selectivity ratio (SR) ([2]; P. aeruginosa ATCC 27853): 19 | Selectivity ratio (SR) [3]: 39 | Selectivity ratio (SR) (Enterococcus faecium 106; E. faecium 106): 79 | Selectivity ratio (SR) [4]: 39 | Selectivity ratio (SR) ([5]; P. vulgaris ATCC 49132): 9.8 | Selectivity ratio (SR) [6]: 39 | Selectivity ratio (SR) ([7]; E. coli ATCC 25922): 19 | Selectivity ratio (SR) ([8]; S. aureus ATCC 29213): 39 | Selectivity ratio (SR) [9]: 19 | Selectivity ratio (SR) [10]: <2.4 | Selectivity ratio (SR) [11]: 2.4 | HD10 (human erythrocytes): 180 µM | HD50 (human erythrocytes): > 200 µM
